Measured values taken from ChEMBL document CHEMBL3046202, “Synthesis, spectral studies, antimicrobial and insect antifeedant potent keto oxiranes” (2011).
Active and inactive are the calls of the source. No cut-off for these calls is given here.

Columns and labels:
Candida albicans = experiment: Antifungal activity against Candida albicans assessed as diameter of growth zone inhibition at 250 ug/ml after 72 hrs by disc diffusion technique; assay type: functional; details: read-out: DIZ
Enterococcus faecalis [1] = experiment: Antibacterial activity against Enterococcus faecalis assessed as growth inhibition at 250 ug/ml after 24-45 hrs by disc diffusion technique; assay type: functional, organism-based
Proteus vulgaris = experiment: Antibacterial activity against Proteus vulgaris assessed as diameter of growth zone inhibition at 250 ug/ml after 24-45 hrs by disc diffusion technique; assay type: functional; details: read-out: DIZ
Klebsiella = experiment: Antibacterial activity against Klebsiella assessed as diameter of growth zone inhibition at 250 ug/ml after 24-45 hrs by disc diffusion technique; assay type: functional; details: read-out: DIZ
Pseudomonas = experiment: Antibacterial activity against Pseudomonas assessed as diameter of growth zone inhibition at 250 ug/ml after 24-45 hrs by disc diffusion technique; assay type: functional; details: read-out: DIZ
Staphylococcus aureus = experiment: Antibacterial activity against Staphylococcus aureus assessed as diameter of growth zone inhibition at 250 ug/ml after 24-45 hrs by disc diffusion technique; assay type: functional; details: read-out: DIZ
Escherichia coli = experiment: Antibacterial activity against Escherichia coli assessed as diameter of growth zone inhibition at 250 ug/ml after 24-45 hrs by disc diffusion technique; assay type: functional; details: read-out: DIZ
Enterococcus faecalis [2] = experiment: Antibacterial activity against Enterococcus faecalis assessed as diameter of growth zone inhibition at 250 ug/ml after 24-45 hrs by disc diffusion technique; assay type: functional; details: read-out: DIZ
Aspergillus niger = experiment: Antifungal activity against Aspergillus niger assessed as growth inhibition at 50 ug/ml after 72 hrs by dilution method; assay type: functional, organism-based
Penicillium = experiment: Antifungal activity against Penicillium assessed as growth inhibition at 50 ug/ml after 72 hrs by dilution method; assay type: functional, organism-based
Achaea janata [3] = experiment: Antifeedant activity against fourth-instar larval stage of Achaea janata L. in castor leaves assessed as decrease in leaf disc consumption at 200 ppm treated for 5 mins before larval infestation by leaf-disc bioassay method; assay type: functional, organism-based
Achaea janata [4] = experiment: Antifeedant activity against fourth-instar larval stage of Achaea janata L. in castor leaves assessed as decrease in leaf disc consumption at 50 to 200 ppm treated for 5 mins before larval infestation by leaf-disc bioassay method; assay type: functional, organism-based

Row | SMILES | zone of inhibition at 250 µg/mL (Candida albicans) | growth inhibition (GI) (Enterococcus faecalis [1]) | zone of inhibition at 250 µg/mL (Proteus vulgaris) | zone of inhibition at 250 µg/mL (Klebsiella) | zone of inhibition at 250 µg/mL (Pseudomonas) | zone of inhibition at 250 µg/mL (Staphylococcus aureus) | zone of inhibition at 250 µg/mL (Escherichia coli) | zone of inhibition at 250 µg/mL (Enterococcus faecalis [2]) | growth inhibition (GI) (Aspergillus niger) | growth inhibition (GI) (Penicillium) | Activity (Achaea janata [3]) | Activity (Achaea janata [4])
1 | O=C(c1ccc(-c2ccccc2)cc1)[C@H]1O[C@@H]1c1ccc(O)cc1 | 20 mm | inactive | 13 mm | 13 mm | 13 mm | 13 mm | 13 mm | – | – | – | – | –
2 | Nc1ccc([C@H]2O[C@@H]2C(=O)c2ccc(-c3ccccc3)cc2)cc1 | – | – | 13 mm | 20 mm | 13 mm | 20 mm | 20 mm | 20 mm | – | – | – | –
3 | O=C(c1ccc(-c2ccccc2)cc1)[C@H]1O[C@@H]1c1ccc([N+](=O)[O-])cc1 | – | inactive | 13 mm | 13 mm | 13 mm | 13 mm | 13 mm | – | inactive | inactive | – | –
4 | COc1ccc([C@H]2O[C@@H]2C(=O)c2ccc(-c3ccccc3)cc2)cc1 | 20 mm | – | 13 mm | 13 mm | 13 mm | 13 mm | 13 mm | 20 mm | – | Active | – | –
5 | Nc1cccc([C@H]2O[C@@H]2C(=O)c2ccc(-c3ccccc3)cc2)c1 | – | – | 13 mm | 20 mm | 13 mm | 20 mm | 20 mm | 20 mm | – | – | – | –
6 | O=C(c1ccc(-c2ccccc2)cc1)[C@H]1O[C@@H]1c1cccc(Br)c1 | 20 mm | inactive | 13 mm | 13 mm | 13 mm | 13 mm | 13 mm | – | Active | Active | Active | –
7 | CN(C)c1ccc([C@H]2O[C@@H]2C(=O)c2ccc(-c3ccccc3)cc2)cc1 | 8 mm | inactive | 13 mm | 13 mm | 20 mm | 20 mm | 20 mm | – | Active | Active | – | –
8 | O=C(c1ccc(-c2ccccc2)cc1)[C@H]1O[C@@H]1c1cccc([N+](=O)[O-])c1 | – | inactive | 13 mm | 13 mm | 13 mm | 13 mm | 13 mm | – | – | – | – | –
9 | Cc1ccc([C@H]2O[C@@H]2C(=O)c2ccc(-c3ccccc3)cc2)cc1 | – | – | 8 mm | 8 mm | 13 mm | 8 mm | – | 8 mm | inactive | – | – | –
10 | O=C(c1ccc(-c2ccccc2)cc1)[C@H]1O[C@@H]1c1cccc(Cl)c1 | – | inactive | 13 mm | 13 mm | 13 mm | 13 mm | 13 mm | – | – | – | Active | –
11 | O=C(c1ccc(-c2ccccc2)cc1)[C@H]1O[C@@H]1c1ccccc1 | – | inactive | 8 mm | 8 mm | 8 mm | 8 mm | 8 mm | – | inactive | inactive | – | –
12 | O=C(c1ccc(-c2ccccc2)cc1)[C@H]1O[C@@H]1c1ccc(Cl)cc1 | 8 mm | inactive | 13 mm | 13 mm | 13 mm | 13 mm | 13 mm | – | inactive | inactive | – | Active
13 | O=C(c1ccc(-c2ccccc2)cc1)[C@H]1O[C@@H]1c1ccccc1[N+](=O)[O-] | – | inactive | 13 mm | 13 mm | 13 mm | 13 mm | 13 mm | – | inactive | inactive | – | –
